In brackets after ≈: the same amount, converted by molar mass. Entries after “also recorded” stand apart in the source; their conditions may differ. Like-named read-outs stand apart in the source and are kept apart here.
What was measured:
[1] = tested on: wild type S. epidermidis RP62A; experiment: microbe, parasite or virus in culture; type: cell-based, Staphylococcus epidermidis; conditions: for MIC: Sensitive strain (SPase without the resistance-conferring Pro)
[2] = tested on: lepB(P29S) S. aureus 8325; experiment: microbe, parasite or virus in culture; type: cell-based, Staphylococcus aureus; conditions: Sensitive (genetically sensitized) strain
[3] = tested on: lepB(P84L) E. coli MG1655; experiment: microbe, parasite or virus in culture; type: cell-based, Escherichia coli
[4] = tested on: lepB(P84L) P. aeruginosa PAO1; experiment: microbe, parasite or virus in culture; type: cell-based, Pseudomonas aeruginosa
[5] = tested on: spsB(S29P) S. epidermidis RP62A; experiment: microbe, parasite or virus in culture; type: cell-based, Staphylococcus epidermidis
wild type S. aureus 8325 = experiment: microbe, parasite or virus in culture; type: cell-based, Staphylococcus aureus; conditions: for MIC: Resistant strain (wild type)
wild type E. coli MG1655 = experiment: microbe, parasite or virus in culture; type: cell-based, Escherichia coli
[6] = tested on: wild type P. aeruginosa PAO1; experiment: microbe, parasite or virus in culture; type: cell-based, Pseudomonas aeruginosa
[7] = tested on: Gram-negative strains (E. coli, P. aeruginosa); experiment: MIC panel; type: cell-based; conditions: wild type or mutant Gram-negative strains
[8] = Staphylococcus epidermidis, read-out: MIC
[9] = Staphylococcus aureus, read-out: MIC
[10] = Escherichia coli, MG1655, Sensitive (genetically sensitized) strain, read-out: MIC
[11] = Pseudomonas aeruginosa, PAO1, Sensitive (genetically sensitized) strain, read-out: MIC
[12] = Escherichia coli, MG1655, Resistant strain (wild type), read-out: MIC
[13] = Pseudomonas aeruginosa, PAO1, Resistant strain (wild type), read-out: MIC
[14] = Sensitive (genetically sensitized) strain

SMILES | activity in words [1] | MIC [1, 8] | MIC [2, 9] | MIC [3, 10] | MIC [4, 11] | MIC [5, 8] | MIC (wild type S. aureus 8325; [9]) | MIC (wild type E. coli MG1655; [12]) | MIC [6, 13] | MIC [1] | MIC [3, 14] | MIC [2] | MIC [4, 14] | MIC [5] | MIC (wild type S. aureus 8325) | MIC (wild type E. coli MG1655; Resistant strain (wild type)) | MIC ([6]; Resistant strain (wild type)) | activity in words [5] | activity in words (wild type S. aureus 8325) | activity in words [7]
C[C@@H]1NC(=O)[C@@H](N(C)C(=O)CNC(=O)[C@@H](C)NC(=O)[C@@H](CO)N(C)C(=O)c2ccc(-c3ccccc3)cc2)c2ccc(O)c(c2)-c2cc(ccc2O)C[C@@H](C(=O)O)NC1=O [Compound 8] | retains some activity | 32 µg/mL (≈ 38.9 µM) | > 64 µg/mL | > 64 µg/mL | > 64 µg/mL | > 64 µg/mL | > 64 µg/mL | > 64 µg/mL | > 64 µg/mL | – | – | – | – | – | – | – | – | – | – | –
CCc1ccc(-c2ccc(C(=O)N(C)[C@H](CO)C(=O)N[C@H](C)C(=O)NCC(=O)N(C)[C@@H]3C(=O)N[C@@H](C)C(=O)N[C@H](C(=O)O)Cc4ccc(O)c(c4)-c4cc3ccc4O)cc2)cc1 [Compound 9] | – | – | > 64 µg/mL | – | > 64 µg/mL | > 64 µg/mL | > 64 µg/mL | > 64 µg/mL | > 64 µg/mL | 64 µg/mL (≈ 75.2 µM) | >64 µg/mL | – | – | – | – | – | – | – | – | –
CCc1ccc(-c2ccc(C(=O)N(C)[C@H](CO)C(=O)N[C@H](C)C(=O)NCC(=O)N(C)[C@@H]3C(=O)N[C@@H](C)C(=O)N[C@H](C(=O)O)Cc4ccc(O)c(c4)-c4cc3ccc4O)cc2)cc1 [Compound 10] | – | – | – | – | – | – | – | – | – | 8 µg/mL (≈ 9.4 µM) | 16 µg/mL | 64 µg/mL | >64 µg/mL | >64 µg/mL | >64 µg/mL | >64 µg/mL | >64 µg/mL | – | – | –
CCCCCCCCc1ccc(-c2ccc(C(=O)N(C)[C@H](CO)C(=O)N[C@H](C)C(=O)NCC(=O)N(C)[C@@H]3C(=O)N[C@@H](C)C(=O)N[C@H](C(=O)O)Cc4ccc(O)c(c4)-c4cc3ccc4O)cc2)cc1 [Compound 12] | – | 0.5 µg/mL (≈ 0.535 µM) | 8 µg/mL | 1 µg/mL | > 64 µg/mL | 32 µg/mL (≈ 34.2 µM) | 64 µg/mL (≈ 68.4 µM) | > 64 µg/mL | > 64 µg/mL | – | – | – | – | – | – | – | – | active | – | –
CCCCCCc1ccc(C(=O)N(C)[C@H](CO)C(=O)N[C@H](C)C(=O)NCC(=O)N(C)[C@@H]2C(=O)N[C@@H](C)C(=O)N[C@H](C(=O)O)Cc3ccc(O)c(c3)-c3cc2ccc3O)cc1 [Compound 13] | – | 1 µg/mL (≈ 1.2 µM) | 8 µg/mL | 1 µg/mL | > 64 µg/mL | 16 µg/mL (≈ 19.3 µM) | 16 µg/mL (≈ 19.3 µM) | > 64 µg/mL | > 64 µg/mL | – | – | – | – | – | – | – | – | – | – | –
CCCCCCCCc1ccc(C(=O)N(C)[C@H](CO)C(=O)N[C@H](C)C(=O)NCC(=O)N(C)[C@@H]2C(=O)N[C@@H](C)C(=O)N[C@H](C(=O)O)Cc3ccc(O)c(c3)-c3cc2ccc3O)cc1 [Compound 14] | – | 8 µg/mL (≈ 9.31 µM) | 64 µg/mL | 32 µg/mL | > 64 µg/mL | > 64 µg/mL | > 64 µg/mL | > 64 µg/mL | > 64 µg/mL | – | – | – | – | – | – | – | – | – | – | –
CCCCCCCCCCc1ccc(C(=O)N(C)[C@H](CO)C(=O)N[C@H](C)C(=O)NCC(=O)N(C)[C@@H]2C(=O)N[C@@H](C)C(=O)N[C@H](C(=O)O)Cc3ccc(O)c(c3)-c3cc2ccc3O)cc1 [Compound 15] | – | 1 µg/mL (≈ 1.13 µM) | 8 µg/mL | 8 µg/mL | 64 µg/mL | > 64 µg/mL | > 64 µg/mL | > 64 µg/mL | > 64 µg/mL | – | – | – | – | – | – | – | – | – | has activity; also recorded: gains activity | –
CCCCCCCCCCCCCCCC(=O)N(C)[C@H](CO)C(=O)N(C)[C@H](C)C(=O)NCC(=O)N(C)[C@@H]1C(=O)N[C@@H](C)C(=O)N[C@H](C(=O)O)Cc2ccc(O)c(c2)-c2cc1ccc2O [Compound 18] | – | > 64 µg/mL | > 64 µg/mL | > 64 µg/mL | > 64 µg/mL | > 64 µg/mL | > 64 µg/mL | > 64 µg/mL | > 64 µg/mL | – | – | – | – | – | – | – | – | retained full activity | – | complete loss of activity
CCCCCCCCCCCCCCCC(=O)N1CC(O)C[C@@H]1C(=O)N[C@H](C)C(=O)NCC(=O)N(C)[C@@H]1C(=O)N[C@@H](C)C(=O)N[C@H](C(=O)O)Cc2ccc(O)c(c2)-c2cc1ccc2O (some centres unmarked) [Compound 19] | – | 4 µg/mL (≈ 4.48 µM) | 4 µg/mL | > 64 µg/mL | > 64 µg/mL | 8 µg/mL (≈ 8.96 µM) | > 64 µg/mL | > 64 µg/mL | > 64 µg/mL | – | – | – | – | – | – | – | – | – | – | –
CCCCCCCCCCCCCCCC(=O)N(C)[C@H](CO)CC(=O)N[C@H](C)C(=O)NCC(=O)N(C)[C@@H]1C(=O)N[C@@H](C)C(=O)N[C@H](C(=O)O)Cc2ccc(O)c(c2)-c2cc1ccc2O [Compound 23] | – | 4 µg/mL (≈ 4.47 µM) | 16 µg/mL | > 64 µg/mL | > 64 µg/mL | 8 µg/mL (≈ 8.94 µM) | 64 µg/mL (≈ 71.5 µM) | > 64 µg/mL | > 64 µg/mL | – | – | – | – | – | – | – | – | – | gain activity | –
